Like-named read-outs stand apart in the source and are kept apart here.
Tests used:
[1] = biological target: HCV NS3/4A protease genotype 1b (Hepatitis C virus genotype 1b, UniProt P26663); experiment: HCV NS3/4A protease time-resolved fluorescence (TRF) assay, Ki against genotype 1b; type: biochemical; conditions: IC50 [gt-1b], NS3/4A protease TRF assay, genotype 1b enzyme 0.2 nM
Method in brief: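 NS3/4A enzyme was preincubated 30 min with inhibitor in 50 mM HEPES pH 7.5, 150 mM NaCl, 15% glycerol, 0.15% Triton X-100, 10 mM DTT, 0.1% PEG 8000; 25 nM europium TRF peptide substrate added, 2.5 h at room temperature. Enzyme: 0.2 nM (1b), 0.4 nM (A156T), 0.025 nM (3a). Ki from IC50 via Cheng-Prusoff.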

[2] = tested on: HCV genotype 1b replicon; experiment: HCV replicon assay, genotype 1b replicon EC50; type: cell-based, Hepatitis C virus; conditions: Hepatitis C virus, HCV replicon, genotype 1b, read-out: EC50 [gt-1b]
Method in brief: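 Stable neomycin phosphotransferase-encoding replicon cell lines, kept under G418 selection beforehand, were plated with a compound dilution series without G418 and incubated 24-48 hours. Replicon RNA was then quantified, or luciferase activity read. EC50 was calculated as percent of DMSO control by four-parameter fit.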

## COCCOc1ccc2nc(C)c3c(c2c1)CC[C@]1(C[C@H]2C(=O)N[C@]4(C(=O)NS(=O)(=O)C5(C)CC5)C[C@H]4/C=C\CCCCC[C@H](NC(=O)OC(C)(C)C(F)(F)F)C(=O)N2C1)O3 [Example 430, 1,1,1-trifluoro-2-methylpropan-2-yl [(2R,6S,12Z,13aS,14aR,16aS)-9′-(2-methoxyethoxy)-5′-methyl-14a-{[(1-methylcyclopropyl)sulfonyl]carbamoyl}-5,16-dioxo-1,1′,2′,5,6,7,8,9,10,11,13a,14,14a,15,16,16a-hexadecahydrospiro[cyclopropa[e]pyrrolo[1,2-a][1,4]diazacyclopentadecine-2,3′-pyrano[2,3-c]quinolin]-6-yl]carbamate]
[1]
  IC50: 0.026 nM
[2]
  EC50: 5.04 nM

## COc1ccc2nc(C)c3c(c2c1)CC[C@]1(C[C@H]2C(=O)N[C@]4(C(=O)NS(=O)(=O)C5(C)CC5)C[C@H]4/C=C\CCCCC[C@H](Nc4cccc(OC)n4)C(=O)N2C1)O3 [Example 431, (2R,6S,12Z,13aS,14aR,16aS)-9′-methoxy-6-[(6-methoxypyridin-2-yl)amino]-5′-methyl-N-[(1-methylcyclopropyl)sulfonyl]-5,16-dioxo-1,1′,2′,6,7,8,9,10,11,13a,14,15,16,16a-tetradecahydrospiro[cyclopropa[e]pyrrolo[1,2-a][1,4]diazacyclopentadecine-2,3′-pyrano[2,3-c]quinoline]-14a(5H)-carboxamide]
[1]
  IC50: 0.209 nM
[2]
  EC50: 9.12 nM

## COc1ccnc(N[C@H]2CCCCC/C=C\[C@@H]3C[C@@]3(C(=O)NS(=O)(=O)C3(C)CC3)NC(=O)[C@@H]3C[C@]4(CCc5c(c(C)nc6ccc(OC)cc56)O4)CN3C2=O)c1 [Example 432, (2R,6S,12Z,13aS,14aR,16aS)-9′-methoxy-6-[(4-methoxypyridin-2-yl)amino]-5′-methyl-N-[(1-methylcyclopropyl)sulfonyl]-5,16-dioxo-1,1′,2′,6,7,8,9,10,11,13a,14,15,16,16a-tetradecahydrospiro[cyclopropa[e]pyrrolo[1,2-a][1,4]diazacyclopentadecine-2,3′-pyrano[2,3-c]quinoline]-14a(5H)-carboxamide]
[1]
  IC50: 0.091 nM
[2]
  EC50: 7.5 nM

## CCc1nc2ccc(OC)cc2c2c1O[C@]1(CC2)C[C@H]2C(=O)N[C@]3(C(=O)NS(=O)(=O)C4(C)CC4)C[C@H]3/C=C\CCCCC[C@H](NC(=O)O[C@H](C)C(C)C)C(=O)N2C1 [Example 433, (2R)-3-methylbutan-2-yl [(2R,6S,12Z,13aS,14aR,16aS)-5′-ethyl-9′-methoxy-14a-{[(1-methylcyclopropyl)sulfonyl]carbamoyl}-5,16-dioxo-1,1′,2′,5,6,7,8,9,10,11,13a,14,14a,15,16,16a-hexadecahydrospiro[cyclopropa[e]pyrrolo[1,2-a][1,4]diazacyclopentadecine-2,3′-pyrano[2,3-c]quinolin]-6-yl]carbamate]
[1]
  IC50: 0.012 nM
[2]
  EC50: 2.17 nM

## CCc1nc2ccc(OC)cc2c2c1O[C@]1(CC2)C[C@H]2C(=O)N[C@]3(C(=O)NS(=O)(=O)C4(C)CC4)C[C@H]3/C=C\CCCCC[C@H](NC(=O)O[C@@H](C)C(C)C)C(=O)N2C1 [Example 434, (2S)-3-methylbutan-2-yl [(2R,6S,12Z,13aS,14aR,16aS)-5′-ethyl-9′-methoxy-14a-{[(1-methylcyclopropyl)sulfonyl]carbamoyl}-5,16-dioxo-1,1′,2′,5,6,7,8,9,10,11,13a,14,14a,15,16,16a-hexadecahydrospiro[cyclopropa[e]pyrrolo[1,2-a][1,4]diazacyclopentadecine-2,3′-pyrano[2,3-c]quinolin]-6-yl]carbamate]
[1]
  IC50: 0.012 nM
[2]
  EC50: 1.78 nM

## COC(=O)N[C@H]1CCCCC/C=C\[C@@H]2C[C@@]2(C(=O)NS(=O)(=O)C2(C)CC2)NC(=O)[C@@H]2C[C@]3(CCc4c(c(C5CC5)nc5ccc(OC)cc45)O3)CN2C1=O [Example 435, methyl [(2R,6S,12Z,13aS,14aR,16aS)-5′-cyclopropyl-9′-methoxy-14a-{[(1-methylcyclopropyl)sulfonyl]carbamoyl}-5,16-dioxo-1,1′,2′,5,6,7,8,9,10,11,13a,14,14a,15,16,16a-hexadecahydrospiro[cyclopropa[e]pyrrolo[1,2-a][1,4]diazacyclopentadecine-2,3′-pyrano[2,3-c]quinolin]-6-yl]carbamate]
[1]; K+ salt
  IC50: 0.069 nM
[2]; K+ salt
  EC50: 3.08 nM

## CCOC(=O)N[C@H]1CCCCC/C=C\[C@@H]2C[C@@]2(C(=O)NS(=O)(=O)C2(C)CC2)NC(=O)[C@@H]2C[C@]3(CCc4c(c(C5CC5)nc5ccc(OC)cc45)O3)CN2C1=O [Example 436, ethyl [(2R,6S,12Z,13aS,14aR,16aS)-5′-cyclopropyl-9′-methoxy-14a-{[(1-methylcyclopropyl)sulfonyl]carbamoyl}-5,16-dioxo-1,1′,2′,5,6,7,8,9,10,11,13a,14,14a,15,16,16a-hexadecahydrospiro[cyclopropa[e]pyrrolo[1,2-a][1,4]diazacyclopentadecine-2,3′-pyrano[2,3-c]quinolin]-6-yl]carbamate]
[1]; K+ salt
  IC50: 0.029 nM
[2]; K+ salt
  EC50: 1.18 nM

## CCCOC(=O)N[C@H]1CCCCC/C=C\[C@@H]2C[C@@]2(C(=O)NS(=O)(=O)C2(C)CC2)NC(=O)[C@@H]2C[C@]3(CCc4c(c(C5CC5)nc5ccc(OC)cc45)O3)CN2C1=O [Example 437, propyl [(2R,6S,12Z,13aS,14aR,16aS)-5′-cyclopropyl-9′-methoxy-14a-{[(1-methylcyclopropyl)sulfonyl]carbamoyl}-5,16-dioxo-1,1′,2′,5,6,7,8,9,10,11,13a,14,14a,15,16,16a-hexadecahydrospiro[cyclopropa[e]pyrrolo[1,2-a][1,4]diazacyclopentadecine-2,3′-pyrano[2,3-c]quinolin]-6-yl]carbamate]
[1]; K+ salt
  IC50: 0.016 nM
[2]; K+ salt
  EC50: 1 nM

## COCCCOc1ccc2nc(C)c3c(c2c1)CC[C@]1(C[C@H]2C(=O)N[C@]4(C(=O)NS(=O)(=O)C5(C)CC5)C[C@H]4/C=C\CCCCC[C@H](NC(=O)OC(C)(C)C)C(=O)N2C1)O3 [Example 438, tert-butyl [(2R,6S,12Z,13aS,14aR,16aS)-9′-(3-methoxypropoxy)-5′-methyl-14a-{[(1-methylcyclopropyl)sulfonyl]carbamoyl}-5,16-dioxo-1,1′,2′,5,6,7,8,9,10,11,13a,14,14a,15,16,16a-hexadecahydrospiro[cyclopropa[e]pyrrolo[1,2-a][1,4]diazacyclopentadecine-2,3′-pyrano[2,3-c]quinolin]-6-yl]carbamate]
[1]
  IC50: 0.023 nM
[2]
  EC50: 3.5 nM

## CCc1nc2ccc(OC)cc2c2c1O[C@]1(C[C@H]2F)C[C@H]2C(=O)N[C@]3(C(=O)NS(=O)(=O)C4(C)CC4)C[C@H]3/C=C\CCCCC[C@H](NC(=O)OC(C)(C)C)C(=O)N2C1 [Example 439, tert-butyl [(1′R,2S,6S,12Z,13aS,14aR,16aS)-5′-ethyl-1′-fluoro-9′-methoxy-14a-{[(1-methylcyclopropyl)sulfonyl]carbamoyl}-5,16-dioxo-1,1′,2′,5,6,7,8,9,10,11,13a,14,14a,15,16,16a-hexadecahydrospiro[cyclopropa[e]pyrrolo[1,2-a][1,4]diazacyclopentadecine-2,3′-pyrano[2,3-c]quinolin]-6-yl]carbamate]
[1]
  IC50: 0.009 nM
[2]
  EC50: 1.55 nM

## COc1ccc2nc(C(F)F)c3c(c2c1)CC[C@]1(C[C@H]2C(=O)N[C@]4(C(=O)NS(=O)(=O)C5(C)CC5)C[C@H]4/C=C\CCCCC[C@H](NC(=O)OCC(C)C)C(=O)N2C1)O3 [Example 440, 2-methylpropyl [(2R,6S,12Z,13aS,14aR,16aS)-5′-(difluoromethyl)-9′-methoxy-14a-{[(1-methylcyclopropyl)sulfonyl]carbamoyl}-5,16-dioxo-1,1′,2′,5,6,7,8,9,10,11,13a,14,14a,15,16,16a-hexadecahydrospiro[cyclopropa[e]pyrrolo[1,2-a][1,4]diazacyclopentadecine-2,3′-pyrano[2,3-c]quinolin]-6-yl]carbamate]
[1]; K+ salt
  IC50: 0.016 nM
[2]; K+ salt
  EC50: 1.98 nM

## COc1ccc2nc(C(F)F)c3c(c2c1)CC[C@]1(C[C@H]2C(=O)N[C@]4(C(=O)NS(=O)(=O)C5(C)CC5)C[C@H]4/C=C\CCCCC[C@H](NC(=O)OCC(C)(C)C)C(=O)N2C1)O3 [Example 441, 2,2-dimethylpropyl [(2R,6S,12Z,13aS,14aR,16aS)-5′-(difluoromethyl)-9′-methoxy-14a-{[(1-methylcyclopropyl)sulfonyl]carbamoyl}-5,16-dioxo-1,1′,2′,5,6,7,8,9,10,11,13a,14,14a,15,16,16a-hexadecahydrospiro[cyclopropa[e]pyrrolo[1,2-a][1,4]diazacyclopentadecine-2,3′-pyrano[2,3-c]quinolin]-6-yl]carbamate]
[1]; K+ salt
  IC50: 0.016 nM
[2]; K+ salt
  EC50: 1.53 nM

## COc1ccc2nc(C(F)F)c3c(c2c1)CC[C@]1(C[C@H]2C(=O)N[C@]4(C(=O)NS(=O)(=O)C5(C)CC5)C[C@H]4/C=C\CCCCC[C@H](NC(=O)O[C@@H](C)C(C)C)C(=O)N2C1)O3 [Example 442, (2S)-3-methylbutan-2-yl [(2R,6S,12Z,13aS,14aR,16aS)-5′-(difluoromethyl)-9′-methoxy-14a-{[(1-methylcyclopropyl)sulfonyl]carbamoyl}-5,16-dioxo-1,1′,2′,5,6,7,8,9,10,11,13a,14,14a,15,16,16a-hexadecahydrospiro[cyclopropa[e]pyrrolo[1,2-a][1,4]diazacyclopentadecine-2,3′-pyrano[2,3-c]quinolin]-6-yl]carbamate]
[1]; K+ salt
  IC50: 0.024 nM
[2]; K+ salt
  EC50: 1.68 nM
